According to PubChem BioAssay (NCI):
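Abbreviation: GI50, concentration required for 50% inhibition of growth. TGI denotes the concentration required for complete inhibition of growth.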

What was measured:
Assay in all cases: NCI anticancer screen, dose series, 384-well format
786-0 renal = tested on: 786-0 renal
A498 renal = tested on: A498 renal
A549 NSCLC = tested on: A549 NSCLC
ACHN renal = tested on: ACHN renal
BT-549 breast = tested on: BT-549 breast
CAKI-1 renal = tested on: CAKI-1 renal
CCRF-CEM leukemia = tested on: CCRF-CEM leukemia
COLO 205 colon = tested on: COLO 205 colon
DU-145 prostate = tested on: DU-145 prostate
EKVX NSCLC = tested on: EKVX NSCLC
HCC-2998 colon = tested on: HCC-2998 colon
HCT-15 colon = tested on: HCT-15 colon
HL-60(TB) leukemia = tested on: HL-60(TB) leukemia
HOP-62 NSCLC = tested on: HOP-62 NSCLC
HOP-92 NSCLC = tested on: HOP-92 NSCLC
HS 578T breast = tested on: HS 578T breast
HT29 colon = tested on: HT29 colon
IGROV1 ovarian = tested on: IGROV1 ovarian
KM12 colon = tested on: KM12 colon
M14 melanoma = tested on: M14 melanoma
MALME-3M melanoma = tested on: MALME-3M melanoma
MCF7 breast = tested on: MCF7 breast
MDA-MB-231 breast = tested on: MDA-MB-231 breast
MDA-MB-435 melanoma = tested on: MDA-MB-435 melanoma
MDA-MB-468 breast = tested on: MDA-MB-468 breast
MOLT-4 leukemia = tested on: MOLT-4 leukemia
NCI-H226 lung = tested on: NCI-H226 lung
NCI-H23 lung = tested on: NCI-H23 lung
NCI-H322M lung = tested on: NCI-H322M lung
NCI-H460 NSCLC = tested on: NCI-H460 NSCLC
NCI-H522 lung = tested on: NCI-H522 lung
NCI/ADR-RES ovarian = tested on: NCI/ADR-RES ovarian
OVCAR-3 ovarian = tested on: OVCAR-3 ovarian
OVCAR-4 ovarian = tested on: OVCAR-4 ovarian
OVCAR-5 ovarian = tested on: OVCAR-5 ovarian
OVCAR-8 ovarian = tested on: OVCAR-8 ovarian
PC-3 prostate = tested on: PC-3 prostate
RPMI-8226 leukemia = tested on: RPMI-8226 leukemia
RXF 393 renal = tested on: RXF 393 renal
SF-268 CNS = tested on: SF-268 CNS
SF-295 CNS = tested on: SF-295 CNS
SF-539 CNS = tested on: SF-539 CNS
SK-MEL-2 melanoma = tested on: SK-MEL-2 melanoma
SK-MEL-28 melanoma = tested on: SK-MEL-28 melanoma
SK-MEL-5 melanoma = tested on: SK-MEL-5 melanoma
SK-OV-3 ovarian = tested on: SK-OV-3 ovarian
SN12C renal = tested on: SN12C renal
SNB-19 CNS = tested on: SNB-19 CNS
SNB-75 CNS = tested on: SNB-75 CNS
SR leukemia = tested on: SR leukemia
SW-620 colon = tested on: SW-620 colon
T-47D breast = tested on: T-47D breast
TK-10 renal = tested on: TK-10 renal
U251 glioblastoma = tested on: U251 glioblastoma
UACC-257 melanoma = tested on: UACC-257 melanoma
UACC-62 melanoma = tested on: UACC-62 melanoma

OCc1ccc(-c2nn(Cc3ccccc3)c3ccccc23)o1
GI50 (786-0 renal): 34.5 µM | TGI (786-0 renal): > 100 µM | GI50 (A498 renal): 0.024 µM | TGI (A498 renal): 0.0655 µM | GI50 (A549 NSCLC): 19.8 µM | TGI (A549 NSCLC): 44.9 µM | GI50 (ACHN renal): 35 µM | TGI (ACHN renal): 81.9 µM | GI50 (BT-549 breast): 17.4 µM | TGI (BT-549 breast): 31.5 µM | GI50 (CAKI-1 renal): 0.427 µM | TGI (CAKI-1 renal): 3.49 µM | GI50 (CCRF-CEM leukemia): 18 µM | TGI (CCRF-CEM leukemia): 32.3 µM | GI50 (COLO 205 colon): 18.6 µM | TGI (COLO 205 colon): 36.5 µM | GI50 (DU-145 prostate): 17.4 µM | TGI (DU-145 prostate): 32.8 µM | GI50 (EKVX NSCLC): 27.3 µM | TGI (EKVX NSCLC): 68.1 µM | GI50 (HCC-2998 colon): 20.1 µM | TGI (HCC-2998 colon): 34.9 µM | GI50 (HCT-15 colon): 23 µM | TGI (HCT-15 colon): 49.6 µM | GI50 (HL-60(TB) leukemia): 16.6 µM | TGI (HL-60(TB) leukemia): 30.4 µM | GI50 (HOP-62 NSCLC): 5.79 µM | TGI (HOP-62 NSCLC): 26.3 µM | GI50 (HOP-92 NSCLC): 16 µM | TGI (HOP-92 NSCLC): 30.8 µM | GI50 (HS 578T breast): 20.3 µM | TGI (HS 578T breast): 42.8 µM | GI50 (HT29 colon): 17.9 µM | TGI (HT29 colon): 32.3 µM | GI50 (IGROV1 ovarian): 0.424 µM | TGI (IGROV1 ovarian): 2.31 µM | GI50 (KM12 colon): 18.6 µM | TGI (KM12 colon): 34 µM | GI50 (M14 melanoma): 21.7 µM | TGI (M14 melanoma): 39.7 µM | GI50 (MALME-3M melanoma): 20.4 µM | TGI (MALME-3M melanoma): 36.4 µM | GI50 (MCF7 breast): 2.34 µM | TGI (MCF7 breast): > 100 µM | GI50 (MDA-MB-231 breast): 20.3 µM | TGI (MDA-MB-231 breast): 45.8 µM | GI50 (MDA-MB-435 melanoma): 20.8 µM | TGI (MDA-MB-435 melanoma): 38 µM | GI50 (MDA-MB-468 breast): 0.181 µM | TGI (MDA-MB-468 breast): 0.328 µM | GI50 (MOLT-4 leukemia): 12.1 µM | TGI (MOLT-4 leukemia): 24.7 µM | GI50 (NCI-H226 lung): 0.166 µM | TGI (NCI-H226 lung): 0.314 µM | GI50 (NCI-H23 lung): 25.3 µM | TGI (NCI-H23 lung): 53.1 µM | GI50 (NCI-H322M lung): 33 µM | TGI (NCI-H322M lung): > 100 µM | GI50 (NCI-H460 NSCLC): 16.4 µM | TGI (NCI-H460 NSCLC): 30.3 µM | GI50 (NCI-H522 lung): 14.6 µM | TGI (NCI-H522 lung): 28.2 µM | GI50 (NCI/ADR-RES ovarian): 21 µM | TGI (NCI/ADR-RES ovarian): 42.7 µM | GI50 (OVCAR-3 ovarian): 9.85 µM | TGI (OVCAR-3 ovarian): 21.9 µM | GI50 (OVCAR-4 ovarian): 23.5 µM | TGI (OVCAR-4 ovarian): 49 µM | GI50 (OVCAR-5 ovarian): 0.369 µM | TGI (OVCAR-5 ovarian): 5.99 µM | GI50 (OVCAR-8 ovarian): 23.5 µM | TGI (OVCAR-8 ovarian): 47 µM | GI50 (PC-3 prostate): 19.7 µM | TGI (PC-3 prostate): 37.3 µM | GI50 (RPMI-8226 leukemia): 9.64 µM | TGI (RPMI-8226 leukemia): 21.3 µM | GI50 (RXF 393 renal): 11.4 µM | TGI (RXF 393 renal): 27.5 µM | GI50 (SF-268 CNS): 29.8 µM | TGI (SF-268 CNS): 69.7 µM | GI50 (SF-295 CNS): 46.6 µM | TGI (SF-295 CNS): > 100 µM | GI50 (SF-539 CNS): 18.5 µM | TGI (SF-539 CNS): 34.6 µM | GI50 (SK-MEL-2 melanoma): 36.5 µM | TGI (SK-MEL-2 melanoma): 54.5 µM | GI50 (SK-MEL-28 melanoma): 24 µM | TGI (SK-MEL-28 melanoma): 41.4 µM | GI50 (SK-MEL-5 melanoma): 18.3 µM | TGI (SK-MEL-5 melanoma): 32.5 µM | GI50 (SK-OV-3 ovarian): 22.5 µM | TGI (SK-OV-3 ovarian): 41.4 µM | GI50 (SN12C renal): 50.1 µM | TGI (SN12C renal): > 100 µM | GI50 (SNB-19 CNS): 46.2 µM | TGI (SNB-19 CNS): > 100 µM | GI50 (SNB-75 CNS): 17.2 µM | TGI (SNB-75 CNS): 35.1 µM | GI50 (SR leukemia): 3.02 µM | TGI (SR leukemia): 7.56 µM | GI50 (SW-620 colon): 20.2 µM | TGI (SW-620 colon): 41.5 µM | GI50 (T-47D breast): 9.48 µM | TGI (T-47D breast): 34.1 µM | GI50 (TK-10 renal): 0.374 µM | TGI (TK-10 renal): 2.29 µM | GI50 (U251 glioblastoma): 13.3 µM | TGI (U251 glioblastoma): 28.1 µM | GI50 (UACC-257 melanoma): 1.49 µM | TGI (UACC-257 melanoma): 3.15 µM | GI50 (UACC-62 melanoma): 1.97 µM | TGI (UACC-62 melanoma): 31.4 µM
